How the values were obtained:
chondrocyte = conditions: compared among hydrocortisone, triamcinolone and dexamethasone; cited from earlier work
cartilage = assay: Cartilage toluidine blue staining, comparison of TLC599 with TA and ER-TA, Study #75903-18-214
Protocol: Proteoglycan loss was evaluated by cationic dyes, toluidine blue, that staining proteoglycans.

SMILES | effectiveness to induce chondrocyte apoptosis (chondrocyte) | proteoglycan loss (toluidine blue staining) (cartilage; high dose 18.75 mg/knee, single IA injection, vs saline (FIG. 3)) | proteoglycan loss in cartilage (cartilage; single dose (FIG. 3))
C[C@@H]1C[C@H]2[C@@H]3CCC4=CC(=O)C=C[C@]4(C)[C@@]3(F)[C@@H](O)C[C@]2(C)[C@@]1(O)C(=O)CO [dexamethasone] | most effective |  | 
CC1(C)O[C@@H]2C[C@H]3[C@@H]4CCC5=CC(=O)C=C[C@]5(C)[C@@]4(F)[C@@H](O)C[C@]3(C)[C@]2(C(=O)CO)O1 [TA, triamcinolone acetonide] |  | significantly proteoglycan loss compared to saline | moderate proteoglycan loss

Reference: patent US12083138B2, “Methods to reduce complications of intra-articular steroid” (TAIWAN LIPOSOME CO., LTD., priority 2018, dated 2024)
